From patent US20220041681A1 (MEDIMMUNE LIMITED, priority 2016, published 2022)

System: Healthy volunteer
Assay: Phase 1 single-ascending dose study
Conditions: for TEAE: Abdominal distension / TEAE: Abdominal pain / TEAE: Application site erosion / TEAE: Arrhythmia / TEAE: Atrioventricular block second degree / TEAE: Cardiac Disorders / TEAE: Decreased appetite / TEAE: Diarrhea / TEAE: Dizziness / TEAE: Gastrointestinal Disorders / TEAE: Headache / TEAE: Immune System Disorders / TEAE: Injury associated with device / TEAE: Injury poisoning and procedural complications / TEAE: Metabolism and nutrition disorders / TEAE: Musculoskeletal and connective tissue disorders / TEAE: Musculoskeletal chest pain / TEAE: Nasopharyngitis / TEAE: Nausea / TEAE: Nervous system disorders / TEAE: Oropharyngeal pain / TEAE: Procedural dizziness / TEAE: Respiratory, thoracic and mediastinal disorders / TEAE: Seasonal allergy / TEAE: Subjects with at least one event / TEAE: Ventricular extrasystoles / TEAE: Vomiting: N = 6, subjects n (%)

For `CCCCCCCCCCCCCCCC(=O)N[C@@H](CCC(=O)NCCCC[C@H](NC(=O)[C@H](CC(=O)O)NC(=O)[C@H](CO)NC(=O)C(NC(=O)[C@H](Cc1ccccc1)NC(=O)C(NC(=O)CNC(=O)[C@H](CCC(N)=O)NC(=O)[C@H](CO)NC(=O)[C@@H](N)Cc1cnc[nH]1)[C@@H](C)O)[C@@H](C)O)C(=O)N[C@@H](CO)C(=O)N[C@@H](CCC(=O)O)C(=O)N[C@@H](Cc1ccc(O)cc1)C(=O)N[C@@H](CC(C)C)C(=O)N[C@@H](CC(=O)O)C(=O)N[C@@H](CO)C(=O)N[C@@H](CCC(=O)O)C(=O)N[C@@H](CCCNC(=N)N)C(=O)N[C@@H](C)C(=O)N[C@@H](CCCNC(=N)N)C(=O)N[C@@H](CC(=O)O)C(=O)N[C@@H](Cc1ccccc1)C(=O)N[C@H](C(=O)N[C@@H](C)C(=O)N[C@@H](Cc1c[nH]c2ccccc12)C(=O)N[C@@H](CC(C)C)C(=O)N[C@@H](CCC(=O)O)C(=O)N[C@@H](C)C(=O)NCC(=O)NCC(=O)O)C(C)C)C(=O)O` (stereo partly shown) [Peptide G933], the “TEAE: Abdominal distension” value (5 μg) was 0, the “TEAE: Abdominal pain” value (5 μg) was 0 and the “TEAE: Application site erosion” value (5 μg) was 0. The “TEAE: Arrhythmia” value (5 μg) was 0, the “TEAE: Atrioventricular block second degree” value (5 μg) was 0 and the “TEAE: Cardiac Disorders” value (5 μg) was 0. The “TEAE: Decreased appetite” value (5 μg) was 0, the “TEAE: Diarrhea” value (5 μg) was 0 and the “TEAE: Dizziness” value (5 μg) was 0. The “TEAE: Gastrointestinal Disorders” value (5 μg) was 0, the “TEAE: Headache” value (5 μg) was 1 (16.7%) and the “TEAE: Immune System Disorders” value (5 μg) was 0. For the same compound, the “TEAE: Injury associated with device” value (5 μg) was 0, the “TEAE: Injury poisoning and procedural complications” value (5 μg) was 0 and the “TEAE: Metabolism and nutrition disorders” value (5 μg) was 0. The “TEAE: Musculoskeletal and connective tissue disorders” value (5 μg) was 0, the “TEAE: Musculoskeletal chest pain” value (5 μg) was 0 and the “TEAE: Nasopharyngitis” value (5 μg) was 1 (16.7%). The “TEAE: Nausea” value (5 μg) was 0, the “TEAE: Nervous system disorders” value (5 μg) was 1 (16.7%) and the “TEAE: Oropharyngeal pain” value (5 μg) was 0. The “TEAE: Procedural dizziness” value (5 μg) was 0, the “TEAE: Respiratory, thoracic and mediastinal disorders” value (from here on “TEAE: Respiratory”) (5 μg) was 0 and the “TEAE: Seasonal allergy” value (5 μg) was 0. For the same compound, the “TEAE: Subjects with at least one event” value (5 μg) was 2 (33.3%), the “TEAE: Ventricular extrasystoles” value (5 μg) was 0 and the “TEAE: Vomiting” value (5 μg) was 0. For the same compound, the “TEAE: Abdominal distension” value (10 μg) was 0, the “TEAE: Abdominal pain” value (10 μg) was 1 (16.7%) and the “TEAE: Application site erosion” value (10 μg) was 0. The “TEAE: Arrhythmia” value (10 μg) was 0, the “TEAE: Atrioventricular block second degree” value (10 μg) was 1 (16.7%) and the “TEAE: Cardiac Disorders” value (10 μg) was 1 (16.7%). For the same compound, the “TEAE: Decreased appetite” value (10 μg) was 0, the “TEAE: Diarrhea” value (10 μg) was 1 (16.7%) and the “TEAE: Dizziness” value (10 μg) was 1 (16.7%). For the same compound, the “TEAE: Gastrointestinal Disorders” value (10 μg) was 1 (16.7%), the “TEAE: Headache” value (10 μg) was 0 and the “TEAE: Immune System Disorders” value (10 μg) was 0. For the same compound, the “TEAE: Injury associated with device” value (10 μg) was 0, the “TEAE: Injury poisoning and procedural complications” value (10 μg) was 0 and the “TEAE: Metabolism and nutrition disorders” value (10 μg) was 0. The “TEAE: Musculoskeletal and connective tissue disorders” value (10 μg) was 0, the “TEAE: Musculoskeletal chest pain” value (10 μg) was 0 and the “TEAE: Nasopharyngitis” value (10 μg) was 0. The “TEAE: Nausea” value (10 μg) was 0, the “TEAE: Nervous system disorders” value (10 μg) was 1 (16.7%) and the “TEAE: Oropharyngeal pain” value (10 μg) was 0. The “TEAE: Procedural dizziness” value (10 μg) was 0, the “TEAE: Respiratory” value (10 μg) was 0 and the “TEAE: Seasonal allergy” value (10 μg) was 0. For the same compound, the “TEAE: Subjects with at least one event” value (10 μg) was 3 (50.0%), the “TEAE: Ventricular extrasystoles” value (10 μg) was 0 and the “TEAE: Vomiting” value (10 μg) was 0. For the same compound, the “TEAE: Abdominal distension” value (30 μg) was 0, the “TEAE: Abdominal pain” value (30 μg) was 0 and the “TEAE: Application site erosion” value (30 μg) was 1 (16.7%). The “TEAE: Arrhythmia” value (30 μg) was 0, the “TEAE: Atrioventricular block second degree” value (30 μg) was 0 and the “TEAE: Cardiac Disorders” value (30 μg) was 0. For the same compound, the “TEAE: Decreased appetite” value (30 μg) was 0, the “TEAE: Diarrhea” value (30 μg) was 0 and the “TEAE: Dizziness” value (30 μg) was 1 (16.7%). The “TEAE: Gastrointestinal Disorders” value (30 μg) was 0, the “TEAE: Headache” value (30 μg) was 1 (16.7%) and the “TEAE: Immune System Disorders” value (30 μg) was 1 (16.7%). The “TEAE: Injury associated with device” value (30 μg) was 0, the “TEAE: Injury poisoning and procedural complications” value (30 μg) was 1 (16.7%) and the “TEAE: Metabolism and nutrition disorders” value (30 μg) was 0. The “TEAE: Musculoskeletal and connective tissue disorders” value (30 μg) was 1 (16.7%), the “TEAE: Musculoskeletal chest pain” value (30 μg) was 1 (16.7%) and the “TEAE: Nasopharyngitis” value (30 μg) was 0. For the same compound, the “TEAE: Nausea” value (30 μg) was 0, the “TEAE: Nervous system disorders” value (30 μg) was 1 (16.7%) and the “TEAE: Oropharyngeal pain” value (30 μg) was 0. The “TEAE: Procedural dizziness” value (30 μg) was 1 (16.7%), the “TEAE: Respiratory” value (30 μg) was 0 and the “TEAE: Seasonal allergy” value (30 μg) was 1 (16.7%). The “TEAE: Subjects with at least one event” value (30 μg) was 4 (66.7%), the “TEAE: Ventricular extrasystoles” value (30 μg) was 0 and the “TEAE: Vomiting” value (30 μg) was 0. The vomiting episodes (100 μg dose, 1 subject) was 1 episode, the “TEAE: Abdominal distension” value (100 μg) was 0 and the “TEAE: Abdominal pain” value (100 μg) was 0. The “TEAE: Application site erosion” value (100 μg) was 0, the “TEAE: Arrhythmia” value (100 μg) was 1 (16.7%) and the “TEAE: Atrioventricular block second degree” value (100 μg) was 0. The “TEAE: Cardiac Disorders” value (100 μg) was 1 (16.7%), the “TEAE: Decreased appetite” value (100 μg) was 0 and the “TEAE: Diarrhea” value (100 μg) was 0. For the same compound, the “TEAE: Dizziness” value (100 μg) was 0, the “TEAE: Gastrointestinal Disorders” value (100 μg) was 1 (16.7%) and the “TEAE: Headache” value (100 μg) was 1 (16.7%). For the same compound, the “TEAE: Immune System Disorders” value (100 μg) was 0, the “TEAE: Injury associated with device” value (100 μg) was 0 and the “TEAE: Injury poisoning and procedural complications” value (100 μg) was 0. For the same compound, the “TEAE: Metabolism and nutrition disorders” value (100 μg) was 0, the “TEAE: Musculoskeletal and connective tissue disorders” value (100 μg) was 0 and the “TEAE: Musculoskeletal chest pain” value (100 μg) was 0. For the same compound, the “TEAE: Nasopharyngitis” value (100 μg) was 0, the “TEAE: Nausea” value (100 μg) was 1 (16.7%) and the “TEAE: Nervous system disorders” value (100 μg) was 2 (33.3%). For the same compound, the “TEAE: Oropharyngeal pain” value (100 μg) was 0, the “TEAE: Procedural dizziness” value (100 μg) was 0 and the “TEAE: Respiratory” value (100 μg) was 0. For the same compound, the “TEAE: Seasonal allergy” value (100 μg) was 0, the “TEAE: Ventricular extrasystoles” value (100 μg) was 0 and the “TEAE: Vomiting” value (100 μg) was 1 (16.7%). The vomiting episodes (150 μg dose, 4 subjects) was 9 episodes, the “TEAE: Abdominal distension” value (150 μg) was 2 (3.3%) and the “TEAE: Abdominal pain” value (150 μg) was 0. The “TEAE: Application site erosion” value (150 μg) was 0, the “TEAE: Arrhythmia” value (150 μg) was 0 and the “TEAE: Atrioventricular block second degree” value (150 μg) was 0. For the same compound, the “TEAE: Cardiac Disorders” value (150 μg) was 0, the “TEAE: Decreased appetite” value (150 μg) was 2 (33.3%) and the “TEAE: Diarrhea” value (150 μg) was 0. For the same compound, the “TEAE: Dizziness” value (150 μg) was 2 (33.3%).
